According to patent US20230286930A1, “N -SUBSTITUTED 4-(1,3-ARYLOXAZOLO-2-YL)PHENYL COMPOUNDS FOR THE TREATMENT AND PROPHYLAXIS OF HEPATITIS B VIRUS INFECTION” (Hoffmann-La Roche Inc., priority 2020, published 2023):

Experiments:
[1] = system: HBsAg; assay: PHH natural infection assay, HBsAg (alphalisa); format: cell-based, HBV; conditions: Hepatitis B virus, read-out: HBsAg IC50
Procedure: (§1) Detailed procedures regarding primary human hepatocyte (PHH) HBV natural infection assay are described as below. One tube of frozen PHH (10 million cells) is thawed in 37° C. water bath and then transferred to 20 mL of PHH thawing medium (Sigma, InVitroGRO HT Medium, Cat. S03319) with gently mixing. The cells were then centrifuged at […] for 5 min, the supernatant was discarded and the tube was refilled with 25 mL of PHH plating medium (Sigma, InVitroGRO CP Medium, Cat. S03317). The tube was shaken very gently to re-suspend all cells, and then 50 μL of cells were transferred to each well 384-well collagen I coated plate with appropriate liquid handling equipment, e.g. Integra VIAFLO384 or Agilent Bravo. The cells were then cultured for 24 hours in a cell incubator. For HBV infection, after PHH attachment on the culture plate, the plating medium was removed and replenished with PHH culture medium containing HBV virus. The PHH culture medium was prepared with Dulbecco's Modified Eagle Medium (DMEM)/F12 (1:1 in volume ratio) containing 10% fetal bovine serum (Gibco, Cat. 10099141), 5 ng/mL human epidermal growth factor (Gibco, Cat.PHG0311L), 20 ng/mL dexamethasone (Sigma, Cat.D4902-100 mg), 250 ng/mL human recombinant insulin (Gibco, Cat.41400045) and 100 U/mL penicillin. HBV virus at 200 genome equivalent (GE) per cell with 4% PEG8000 (Sigma, Cat.P1458) containing culture medium were added to the PHH culture medium for infection. The cells were then cultured for 24 hours in cell incubator. Then the cell culture supernatant was removed. The HBV-infected PHH were cultured with sandwich culture method with PHH culture medium containing 1% DMSO and 0.25 mg/mL matrix gel for 72 hours. The supernatant was then refreshed with PHH culture medium containing different concentrations of testing compounds for two times with 72-hour interval. At the end of treatment, the supernatant was collected for viral markers measurements, including HBsAg, HBeAg, HBV DNA and cytotoxicity. HBsAg and HBeAg were detected using alphalisa method using their specific antibodies. For HBV DNA detection, HBV DNA Quantitative Fluorescence Diagnostic Kit (Sansure Biotech Inc.) was used following the manufacture's protocol. Cytotoxicity was determined using Cell Counting Kit-8 (CCK8, Dojindo Molecular Technologies, Inc.).
(§2) The compounds of the present invention were tested for their capacity to inhibit HBsAg and HBeAg as described herein.

[2] = PHH natural infection assay, cytotoxicity (Cell Counting Kit-8); format: cell-based; conditions: human
Procedure: as §1

[3] = system: HBeAg; assay: PHH natural infection assay, HBeAg (alphalisa); format: cell-based, HBV; conditions: Hepatitis B virus, read-out: HBeAg IC50
Procedure: as §1, §2

Compound: O=C(Nc1ccc(-c2nc3c(F)cc(F)cc3o2)cc1)C1CCOC1 (stereo not drawn) [Example 84, N-[4-(4,6-difluoro-1,3-benzoxazol-2-yl)phenyl]tetrahydrofuran-3-carboxamide]
- IC50 [1]: 1.4 µM
- CC50 at 144 h [2]: > 100 µM
- IC50 [3]: 2.01 µM

Compound: O=C(Nc1ccc(-c2nc3cc(F)cc(F)c3o2)cc1)C1CCOC1 (stereo not drawn) [Example 70, N-[4-(5,7-difluoro-1,3-benzoxazol-2-yl)phenyl]tetrahydrofuran-3-carboxamide]
- IC50 [1]: 1.75 µM
- CC50 at 144 h [2]: > 100 µM
- IC50 [3]: 2.46 µM

Compound: O=C(Nc1ccc(-c2nc3cc(Cl)ccc3o2)cc1)c1ccccn1 [Example 74, N-[4-(5-chloro-1,3-benzoxazol-2-yl)phenyl]pyridine-2-carboxamide]
- IC50 [1]: 4.1 µM
- CC50 at 144 h [2]: > 100 µM
- IC50 [3]: 5.44 µM

Compound: Cc1coc(C(=O)Nc2ccc(-c3nc4c(F)cccc4o3)cc2)n1 [Example 43, N-[4-(4-fluoro-1,3-benzoxazol-2-yl)phenyl]-4-methyl-oxazole-2-carboxamide]
- IC50 [1]: 1.09 µM
- CC50 at 144 h [2]: > 100 µM
- IC50 [3]: 1.07 µM

Compound: O=C(Nc1ccc(-c2nc3c(F)cccc3o2)cc1)C12CC(C1)C2 [Example 47, N-[4-(4-fluoro-1,3-benzoxazol-2-yl)phenyl]bicyclo[1.1.1]pentane-1-carboxamide]
- IC50 [1]: 1.02 µM
- CC50 at 144 h [2]: > 100 µM
- IC50 [3]: 1.2 µM

Compound: O=C(Nc1ccc(-c2nc3cccnc3o2)cc1)[C@@H]1CCS(=O)(=O)C1 (single isomer, unassigned) [Example 86-b]
- IC50 [1]: 1.95 µM
- CC50 at 144 h [2]: > 100 µM
- IC50 [3]: 1.87 µM

Compound: CC(O)C(=O)Nc1ccc(-c2nc3ccc(F)cc3o2)cc1 (stereo not drawn) [Example 2, N-[4-(6-fluoro-1,3-benzoxazol-2-yl)phenyl]-2-hydroxy-propanamide]
- IC50 [1]: 1.14 µM
- CC50 at 144 h [2]: > 100 µM
- IC50 [3]: 1.29 µM

Compound: O=C(Nc1ccc(-c2nc3cccc(F)c3o2)cc1)C1CCC1 [Example 25, N-[4-(7-fluoro-1,3-benzoxazol-2-yl)phenyl]cyclobutanecarboxamide]
- IC50 [1]: 0.95 µM
- CC50 at 144 h [2]: > 100 µM
- IC50 [3]: 0.72 µM

Compound: O=C(Nc1ccc(-c2nc3c(F)cccc3o2)cc1)c1cccnc1 [Example 46, N-[4-(4-fluoro-1,3-benzoxazol-2-yl)phenyl]pyridine-3-carboxamide]
- IC50 [1]: 2.23 µM
- CC50 at 144 h [2]: > 100 µM
- IC50 [3]: 4.53 µM

Compound: CC(C)(C)C(=O)Nc1ccc(-c2nc3cccnc3o2)cc1 [Example 61, 2,2-dimethyl-N-(4-oxazolo[5,4-b]pyridin-2-ylphenyl)propanamide]
- IC50 [1]: 1.5 µM
- CC50 at 144 h [2]: > 100 µM
- IC50 [3]: 1.55 µM

Compound: O=C(Nc1ccc(-c2nc3c(F)c(F)ccc3o2)cc1)C1CCOC1 (stereo not drawn) [Example 69, N-[4-(4,5-difluoro-1,3-benzoxazol-2-yl)phenyl]tetrahydrofuran-3-carboxamide]
- IC50 [1]: 1.49 µM
- CC50 at 144 h [2]: > 100 µM
- IC50 [3]: 2.1 µM

Compound: CCOC(=O)Nc1ccc(-c2nc3c(F)cccc3o2)cc1 [Example 59, ethyl N-[4-(4-fluoro-1,3-benzoxazol-2-yl)phenyl]carbamate]
- IC50 [1]: 1.64 µM
- CC50 at 144 h [2]: > 100 µM
- IC50 [3]: 1.57 µM

Compound: O=C(Nc1ccc(-c2nc3ccc(F)cc3o2)cc1)C1CCOC1 (stereo not drawn) [Example 1, N-[4-(6-fluoro-1,3-benzoxazol-2-yl)phenyl]tetrahydrofuran-3-carboxamide]
- IC50 [1]: 0.77 µM
- CC50 at 144 h [2]: > 100 µM
- IC50 [3]: 0.7 µM

Compound: Cc1coc(C(=O)Nc2ccc(-c3nc4ccc(F)c(F)c4o3)cc2)n1 [Example 79, N-[4-(6,7-difluoro-1,3-benzoxazol-2-yl)phenyl]-4-methyl-oxazole-2-carboxamide]
- IC50 [1]: 0.82 µM
- CC50 at 144 h [2]: > 100 µM
- IC50 [3]: 1.03 µM

Compound: Cc1cnc(C(=O)Nc2ccc(-c3nc4c(F)cccc4o3)cc2)o1 [Example 41, N-[4-(4-fluoro-1,3-benzoxazol-2-yl)phenyl]-5-methyl-oxazole-2-carboxamide]
- IC50 [1]: 0.42 µM
- CC50 at 144 h [2]: > 100 µM
- IC50 [3]: 0.52 µM

Compound: O=C(Nc1ccc(-c2nc3cc(Cl)ccc3o2)cc1)C12CC(C1)C2 [Example 76, N-[4-(5-chloro-1,3-benzoxazol-2-yl)phenyl]bicyclo[1.1.1]pentane-1-carboxamide]
- IC50 [1]: 1.59 µM
- CC50 at 144 h [2]: > 100 µM
- IC50 [3]: 2.11 µM

Compound: O=C(Nc1ccc(-c2nc3cc(Cl)ccc3o2)cc1)[C@H]1CCOC1 (single isomer, unassigned) [Example 87-b]
- IC50 [1]: 3.96 µM
- CC50 at 144 h [2]: > 100 µM
- IC50 [3]: 3.8 µM

Compound: O=C(Nc1ccc(-c2nc3cc(Cl)ccc3o2)cc1)c1ncco1 [Example 73, N-[4-(5-chloro-1,3-benzoxazol-2-yl)phenyl]oxazole-2-carboxamide]
- IC50 [1]: 1.78 µM
- CC50 at 144 h [2]: > 100 µM
- IC50 [3]: 2.05 µM

Compound: CC1(C(=O)Nc2ccc(-c3nc4cccc(F)c4o3)cc2)CCCO1 (stereo not drawn) [Example 35, N-[4-(7-fluoro-1,3-benzoxazol-2-yl)phenyl]-2-methyl-tetrahydrofuran-2-carboxamide]
- IC50 [1]: 1.67 µM
- CC50 at 144 h [2]: > 100 µM
- IC50 [3]: 1.85 µM

Compound: O=C(Nc1ccc(-c2nc3c(F)cccc3o2)cc1)c1ccccn1 [Example 42, N-[4-(4-fluoro-1,3-benzoxazol-2-yl)phenyl]pyridine-2-carboxamide]
- IC50 [1]: 0.46 µM
- CC50 at 144 h [2]: > 100 µM
- IC50 [3]: 0.52 µM

Compound: O=C(Nc1ccc(-c2nc3cccc(F)c3o2)cc1)C12CC(C1)C2 [Example 14, N-[4-(7-fluoro-1,3-benzoxazol-2-yl)phenyl]bicyclo[1.1.1]pentane-1-carboxamide]
- IC50 [1]: 0.33 µM
- CC50 at 144 h [2]: > 100 µM
- IC50 [3]: 0.4 µM

Compound: O=C(Nc1ccc(-c2nc3cccnc3o2)cc1)C1CCS(=O)(=O)CC1 [Example 66, N-(4-oxazolo[5,4-b]pyridin-2-ylphenyl)-1,1-dioxo-thiane-4-carboxamide]
- IC50 [1]: 3.9 µM
- CC50 at 144 h [2]: > 100 µM
- IC50 [3]: 6.11 µM

Compound: COC(=O)C12CC(C(=O)Nc3ccc(-c4nc5cccc(F)c5o4)cc3)(C1)C2 [Example 38, methyl 3-[[4-(7-fluoro-1,3-benzoxazol-2-yl)phenyl]carbamoyl]bicyclo[1.1.1]pentane-1-carboxylate]
- IC50 [1]: 3.74 µM
- CC50 at 144 h [2]: > 100 µM
- IC50 [3]: 3.94 µM

Compound: CC1(C(=O)Nc2ccc(-c3nc4cccc(F)c4o3)cc2)CCC1 [Example 34, N-[4-(7-fluoro-1,3-benzoxazol-2-yl)phenyl]-1-methyl-cyclobutanecarboxamide]
- IC50 [1]: 1.61 µM
- CC50 at 144 h [2]: > 100 µM
- IC50 [3]: 1.76 µM

Compound: O=C(Nc1ccc(-c2nc3cccc(F)c3o2)cc1)C1CCSCC1 [Example 30, N-[4-(7-fluoro-1,3-benzoxazol-2-yl)phenyl]tetrahydrothiopyran-4-carboxamide]
- IC50 [1]: 1.49 µM
- CC50 at 144 h [2]: > 100 µM
- IC50 [3]: 1.47 µM

Compound: CC1(C(=O)Nc2ccc(-c3nc4cccnc4o3)cc2)CCOC1 (stereo not drawn) [Example 64, 3-methyl-N-(4-oxazolo[5,4-b]pyridin-2-ylphenyl)tetrahydrofuran-3-carboxamide]
- IC50 [1]: 2.76 µM
- CC50 at 144 h [2]: > 100 µM
- IC50 [3]: 3.56 µM

Compound: O=C(Nc1ccc(-c2nc3cccc(F)c3o2)cc1)C1COC1 [Example 29, N-[4-(7-fluoro-1,3-benzoxazol-2-yl)phenyl]oxetane-3-carboxamide]
- IC50 [1]: 1.38 µM
- CC50 at 144 h [2]: > 100 µM
- IC50 [3]: 1.45 µM
